In PubChem BioAssay (NCI) one finds GI50 and TGI data, which are given here for eight molecules.

Among the test systems are A549 NSCLC; COLO 205 colon; EKVX NSCLC; MALME-3M melanoma; MCF7 breast; MOLT-4 leukemia; NCI/ADR-RES ovarian; SK-OV-3 ovarian; UACC-62 melanoma; UO-31 renal.
Holding throughout (experiment): NCI tumour cell line growth inhibition, 48 h

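Test compounds were applied to cells in 96-well plates for 48 hours at 5 doses. GI50: concentration for 50% inhibition of growth. TGI: total growth inhibition.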

Take `Oc1ccc2ccccc2c1N=Nc1nccs1`: the GI50 in the assay on A549 NSCLC was 6.18 µM; in the assay with COLO 205 colon, 1.6 µM; in the assay on EKVX NSCLC it was 0.807 µM; in the assay with MALME-3M melanoma, 2.41 µM; with MCF7 breast, 0.471 µM; with MOLT-4 leukemia, 0.186 µM. Besides, the GI50 in the assay with NCI/ADR-RES ovarian was 0.393 µM; in the assay on SK-OV-3 ovarian it was 1.98 µM; in the assay with UACC-62 melanoma, 2.3 µM; in the assay on UO-31 renal it was 0.216 µM. For the same molecule, the TGI in the assay with A549 NSCLC was greater than 53.4 µM; in the assay on COLO 205 colon, 13.6 µM; in the assay on EKVX NSCLC it was greater than 54.3 µM; with MALME-3M melanoma it was 15.4 µM; in the assay with MCF7 breast, 16.7 µM; in the assay on MOLT-4 leukemia, greater than 46.9 µM. Moreover, the results for the TGI in the assay with SK-OV-3 ovarian, with UACC-62 melanoma and with UO-31 renal were 41.2 µM, 24.3 µM and 11.9 µM, respectively.
As for `OCc1c[nH]c2ccccc12`, the GI50 is 20.8 µM in the assay with A549 NSCLC; 16 µM in the assay with COLO 205 colon; 15.5 µM in the assay with EKVX NSCLC; 29.4 µM in the assay on MCF7 breast; 39.1 µM in the assay with MOLT-4 leukemia; 23.2 µM in the assay on NCI/ADR-RES ovarian. The GI50 with SK-OV-3 ovarian is 26.3 µM; in the assay on UACC-62 melanoma it was 15.3 µM; with UO-31 renal it was 6.29 µM. The TGI in the assay with A549 NSCLC was 57.9 µM; in the assay on COLO 205 colon, 35.1 µM; in the assay on EKVX NSCLC, 63.3 µM; with MCF7 breast it was 95.4 µM; in the assay on MOLT-4 leukemia, greater than 100 µM; with NCI/ADR-RES ovarian it was 71.4 µM. The TGI with SK-OV-3 ovarian came to 98.9 µM; in the assay with UACC-62 melanoma it was 35.8 µM; in the assay with UO-31 renal, 50.9 µM.
`N#Cc1ccc(O)c(C2=NCC(c3cccc(Oc4ccccc4)c3)O2)c1` (stereo not given): the GI50 is 0.876 µM with A549 NSCLC; 3.13 µM with COLO 205 colon; 0.507 µM with EKVX NSCLC; 1.83 µM in the assay on MALME-3M melanoma; 0.792 µM in the assay with MCF7 breast; 1.67 µM with MOLT-4 leukemia. In addition, the GI50 was 0.29 µM in the assay on NCI/ADR-RES ovarian, 1.58 µM in the assay on SK-OV-3 ovarian, 1.03 µM in the assay with UACC-62 melanoma and 0.449 µM in the assay with UO-31 renal. Further, the TGI in the assay on A549 NSCLC was 11.8 µM; with COLO 205 colon, 15.6 µM; in the assay with EKVX NSCLC, greater than 100 µM; in the assay with MALME-3M melanoma, 7.76 µM; with MCF7 breast, 15.8 µM; in the assay on MOLT-4 leukemia it was greater than 100 µM. Moreover, the TGI in the assay on NCI/ADR-RES ovarian came out at 6.51 µM; in the assay on SK-OV-3 ovarian, 21.3 µM; in the assay with UACC-62 melanoma it was 2.27 µM; with UO-31 renal it was 2.75 µM.
With `CC(C)c1nc(CN(C)C(=O)N[C@H](C(=O)N[C@@H](Cc2ccccc2)C[C@H](O)[C@H](Cc2ccccc2)NC(=O)OCc2cncs2)C(C)C)cs1`, the GI50 in the assay with A549 NSCLC was 23 µM; in the assay with COLO 205 colon, 17.6 µM; in the assay on EKVX NSCLC it was 4.11 µM; with MALME-3M melanoma, 22.1 µM; with MCF7 breast, 21 µM; in the assay with MOLT-4 leukemia, 7.54 µM. The GI50 in the assay on NCI/ADR-RES ovarian is 37.9 µM; in the assay on SK-OV-3 ovarian, 35.8 µM; in the assay on UACC-62 melanoma, 18.5 µM; with UO-31 renal, 24.5 µM. Moreover, the TGI with A549 NSCLC was 65.5 µM; in the assay with COLO 205 colon, 38.2 µM; in the assay with EKVX NSCLC, greater than 100 µM; in the assay with MALME-3M melanoma, greater than 57 µM; in the assay on MCF7 breast, 64.9 µM; in the assay with MOLT-4 leukemia it was 27.5 µM. The TGI with NCI/ADR-RES ovarian is greater than 100 µM; in the assay with SK-OV-3 ovarian it was greater than 100 µM; with UACC-62 melanoma it was 34.9 µM; in the assay on UO-31 renal it was greater than 83.8 µM.
On to `COc1ccc(-c2cc(=O)c3c(OC)c(OC)c(OC)cc3o2)cc1`, for which the TGI in the assay with A549 NSCLC is 85.9 µM; in the assay on COLO 205 colon, 51.7 µM; with EKVX NSCLC it was greater than 100 µM; in the assay with MALME-3M melanoma, greater than 100 µM; in the assay on MCF7 breast it was greater than 100 µM; in the assay on MOLT-4 leukemia it was greater than 100 µM. The TGI with NCI/ADR-RES ovarian is greater than 100 µM; in the assay on SK-OV-3 ovarian, 88.2 µM; in the assay on UACC-62 melanoma, greater than 100 µM; in the assay on UO-31 renal, 87.7 µM.
Consider `CC/C(=C(/c1ccc(O)cc1)c1ccc(OCCNC)cc1)c1ccccc1`, for which the GI50 with A549 NSCLC is 1.89 µM; in the assay on COLO 205 colon, 1.97 µM; in the assay with MCF7 breast, 0.0324 µM; with MOLT-4 leukemia, 2.46 µM; in the assay with NCI/ADR-RES ovarian it was 2.32 µM; in the assay on SK-OV-3 ovarian it was 3.45 µM. For the same molecule, the GI50 was 1.8 µM in the assay with UACC-62 melanoma and 1.86 µM with UO-31 renal. Besides, the TGI was 3.95 µM in the assay with A549 NSCLC; 3.59 µM in the assay with COLO 205 colon; 2.95 µM in the assay with MCF7 breast; 7.14 µM in the assay on MOLT-4 leukemia; 5.85 µM in the assay on NCI/ADR-RES ovarian; 12 µM in the assay on SK-OV-3 ovarian. In addition, the TGI in the assay on UACC-62 melanoma was 3.54 µM; in the assay with UO-31 renal, 4.8 µM.
In the case of `COc1cc(C2=NOC(c3cc(OC)c(OC)c(OC)c3)C2)ccc1OCCCCOc1cc2c(cc1OC)C(=O)N1CCC[C@H]1C=N2` (stereo not given in full), the GI50 in the assay with A549 NSCLC was 0.348 µM; in the assay on COLO 205 colon it was 0.245 µM; in the assay with EKVX NSCLC, 0.471 µM; with MALME-3M melanoma it was 0.197 µM; with MCF7 breast it was 0.255 µM; in the assay with MOLT-4 leukemia, 0.299 µM. Also, the GI50 is 2.82 µM in the assay with NCI/ADR-RES ovarian, 0.446 µM with SK-OV-3 ovarian, 0.171 µM in the assay with UACC-62 melanoma and 0.239 µM in the assay with UO-31 renal. Further, the TGI in the assay with A549 NSCLC is 11.9 µM; in the assay with COLO 205 colon it was 0.586 µM; in the assay on EKVX NSCLC it was 5.43 µM; in the assay on MALME-3M melanoma, 0.364 µM; with MCF7 breast, 24.4 µM; in the assay with NCI/ADR-RES ovarian it was 9.35 µM. Further, the TGI in the assay with SK-OV-3 ovarian came out at 3.81 µM; in the assay with UACC-62 melanoma, 0.335 µM; with UO-31 renal, 0.745 µM.
As for `CC1=CC(=Nc2ccc(N(CCCl)CCCl)cc2)C=C(C)C1=O`, the GI50 was 1.61 µM in the assay with A549 NSCLC; 1.49 µM with COLO 205 colon; 3.31 µM with EKVX NSCLC; 1.84 µM in the assay on MALME-3M melanoma; 0.413 µM in the assay with MCF7 breast; 0.377 µM in the assay with MOLT-4 leukemia. For the same molecule, the GI50 with NCI/ADR-RES ovarian was 1.09 µM; with SK-OV-3 ovarian it was 3.21 µM; in the assay on UACC-62 melanoma, 1.12 µM. The TGI in the assay with A549 NSCLC was 24 µM; in the assay with COLO 205 colon it was 4.67 µM; with EKVX NSCLC it was 35 µM; in the assay on MALME-3M melanoma, 6.49 µM; with MCF7 breast, 3.98 µM; with MOLT-4 leukemia, greater than 25.6 µM. The TGI stood at 10.1 µM in the assay on NCI/ADR-RES ovarian, 23 µM with SK-OV-3 ovarian and 6.47 µM with UACC-62 melanoma.
